Experimental data as given in US5258515A, “Aqueous solutions of sodium salts of trimercapto-s-triazine, their preparation and use” (Degussa Aktiengesellschaft, priority 1989, dated 1993).
Counter-ions that a name gives are not always drawn. Like-named read-outs stand apart in the source and are kept apart here.

Assays:
[1] = Solubility / saturation concentration of TMT-Na salts and salt mixtures in water; type: physicochemical; conditions: for solubility in water: temperature not given; for Solubility of the TMT-Na salt/-salt mixture / solubility: water; for solubility: read-out: saturation concentration of TMT-Na3 in water
Source text: That is, in each case, more than 2 hydrogen atoms of the TMT-H3 are replaced.

[2] = Titration curve of TMT-H3; type: physicochemical
Source text: In the sequence named, the jump are to be associated with the salts TMT-Na, TMT-Na2 and TMT-Na3.

[3] = Solubility / saturation concentration of TMT-Na salts and salt mixtures in water; type: physicochemical
[4] = Stability in storage of aqueous solutions (crystallization); type: physicochemical; conditions: in words
Procedure: Aqueous solutions of TMT-Na3 are commercially available and are used for separating heavy metal from the flue gas wash water of garbage incinerators, waste water in the mining industry and in galvanotechnical and chemical plants. The commercially available, aqueous TMT-NA3 solution has a concentration of 15% by weight (Publication TMT 15 of the Degussa company, 3/1986). The saturation concentration of TMT-Na3 in water is approximately 16% by weight at 0° C. and approximately 25% by weight at 20° C. […] Such a crystallization makes it considerably more difficult to handle the product. If heat-insulated or heated transport and storage containers were used, TMT-Na3 solutions with a higher concentration could be considered as a commercially supplied form of this product; however, this would make the product and its use more expensive.
The object of the present invention is to provide aqueous solutions of sodium salts of trimercapto-s-triazine which have a higher concentration of active substance than current commercially available solutions. Increasing the concentration makes possible a reduction in transportation and storage costs. The solutions should be stable in storage, that is, no crystallization of the active substance or of its salt should occur during storage. […]

[5] = disclosure of DE-AS 22 40 549; cited from earlier work

Compound: Sc1nc(S)nc(S)n1 [TMT-H3, Trimercapto-s-triazine]
- solubility in water (in words) ([1]; in words): practically insoluble in water
- solubility in water [1]: less than 0.5 % by weight
- first jump of the titration curve ([2]; associated with TMT-Na): around 7 pH
- second jump of the titration curve ([2]; associated with TMT-Na2): around 10.5 pH
- third jump of the titration curve ([2]; associated with TMT-Na3): around 12.5 pH

Compound: Sc1nc(S)nc(S)n1 [TMT-Na2, disodium salt of trimercapto-s-triazine]
- solubility in water (in words) ([1]; in words): unusually high water solubility
- solubility relative to that of TMT-Na3 ([1]; in words, comparison with TMT-Na3): considerably above that of the readily soluble TMT-Na3

Compound: Sc1nc(S)nc(S)n1 [TMT-Na2.6 H2 0, hexahydrate of trimercapto-s-triazine disodium salt]
- solubility in water (in words) ([3]; in words, disodium salt): extraordinarily high solubility in water

Compound: Sc1nc(S)nc(S)n1.[Na].[Na].[Na] [TMT-Na3, trimercapto-s-triazine trisodium salt]
- solubility of TMT-Na3 ([1]; 0° C.): approximately 0.78 mole TMT-Na3 per liter of H2 0
- Solubility of the TMT-Na salt/-salt mixture ([1]; 0° C.): 0.78 mole TMT salt/1 H2 O
- solubility of TMT-Na3 ([1]; 20° C.): approximately 1.37 mole TMT-Na3 per liter of H2 0
- Solubility of the TMT-Na salt/-salt mixture ([1]; 20° C.): 1.37 mole TMT salt/1 H2 O
- solubility in water (in words) ([1]; in words): good solubility
- solubility ([1]; 0° C.): ~160 mg/mL
- solubility ([1]; 20° C.): ~250 mg/mL
- stability in storage (crystallization) [4]: crystallizes if the concentration is higher

Compound: Sc1nc(S)nc(S)n1 [TMT-Na, monosodium salt of trimercapto-s-triazine]
- solubility in water (in words) ([1]; in words): slightly soluble in water
- solubility in water [1]: approximately 3 % by weight
- solubility in water [5]: approximately 3 % by weight
- precipitation from solution ([3]; less than 2 hydrogen atoms of trimercapto-s-triazine replaced by Na ions): precipitates
